In PMC5913254, “A novel in vitro metric predicts in vivo efficacy of inhaled silver-based antimicrobials in a murine Pseudomonas aeruginosa pneumonia model” (Scientific Reports, 2018):
Where “and” joins values, the source holds several entries; their conditions need not be identical. Identical values can stand only once.

How the values were obtained:
[1] = test system: P. aeruginosa strain PA M57-15; experiment: MIC and MBC determination, standard CLSI protocol with minor modifications; format: cell-based, Pseudomonas aeruginosa
Experimental: Pseudomonas aeruginosa isolate PA M57-15 was generously donated by Thomas Ferkol, M.D. (Washington University, St. Louis, MO). PA M57-15 was struck from frozen glycerol stocks on to tryptic soy agar plates (Remel) and incubated overnight at 37 °C in a warm room until individual colonies formed. A single colony was inoculated in 10 mL Mueller-Hinton (MH) broth, grown in a shaking incubator (37 °C, 200 rpm) to log phase (OD650 = 0.4), and utilized for experiments after appropriate dilutions. PA M57-15 bacterial suspension at OD650 = 0.4 corresponds to 2–3 × 10^8 CFU/mL, as verified by repeated serial dilution and plating.
The MIC and MBC determinations of the various SCCs and the Ag-PPE-SCK NPs were performed using a standard CLSI protocol with minor modifications. A mucoid clinical isolate of Pseudomonas aeruginosa, PA M57-15, from a cystic fibrosis patient was utilized, because we have previously studied this strain in murine models of P. aeruginosa lung infection[21],[29],[30]. PA M57-15 grown to log phase as previously described was diluted to a density of 10^6 CFU/mL in MH and added 1:1 in a 96-well plate with different concentrations of SCCs dissolved in 95:5 (v:v) DH2O:DMSO solution or the Ag-PPE-SCKs suspended in DH2O. The final SCC concentrations tested were 0.25, 0.5, 0.75, 1, 1.5, and 2 μg/mL and were increased in two-fold increments from 2 μg/mL to 32 μg/mL. The final DMSO concentrations in the wells was 2.5% (v/v) and had no impact on bacterial growth, as determined by growth in the positive control wells. […] Contents of these clear wells were streaked on agar plates and incubated for an additional 24 hours at 37 °C. […] Three technical replicates were employed for each experiment and a total of three biological replicates were performed on separate days (3 technical replicates x 3 biological replicates = 9 total replicates) to account for day-to-day variations in media, bacterial growth, compound dilutions, as well as other experimental conditions. The MIC and MBC values that were identical for at least two readings out of the three are reported.

[2] = test system: immortalized human bronchial epithelial cells (16HBE); experiment: alamarBlue cytotoxicity assay against 16HBE cells (in vitro LD50); format: cell-based; conditions: 24 h
Experimental: (§1) 16HBEs (16HBE14o-), generously provided by Dr. D. Gruenert (University of California, San Francisco, CA) are a human bronchial epithelial cell line transformed with SV40 large T-antigen using the replication-defective pSVori plasmid. 16HBEs were used as a model to determine the relative toxicities of the SCCs to airway cells. Cells between passages 20 to 35 were cultured in Minimum Essential Medium with Earle’s Balanced Salts (Sigma Aldrich) and non-essential amino acids supplemented with penicillin-streptomycin (1%), L-glutamine (1%), and foetal bovine serum (10%). Additionally, primary human dermal fibroblasts (HDFs) were also utilized for in vitro toxicity studies. HDFs at passage 4 were generously donated by Carol Tamminga, M.D. (University of Texas Southwestern Medical Center, Dallas, TX). HDFs were cultured in Dulbecco’s Modified Eagle Medium (Sigma Aldrich) supplemented with penicillin-streptomycin (1%), L-glutamine (1%), and foetal bovine serum (10%) and were utilized between passage 7 to 14 for in vitro toxicity studies. 16HBE and HDF cultures were assessed for bacterial contamination visually, while mycoplasma contamination was assessed both visually and through a PCR-based Universal Mycoplasma Detection Kit assay (ATCC® 30-1012K^TM).
(§2) 16HBEs and HDFs grown to confluency (90–95%) as described above were sub-cultured, re-suspended in the appropriate medium, and seeded in wells of clear 96-well plate(s) at either 25,000 cells/well (16HBEs) or 15,000 cells/well (HDFs) with 100 µL of feeding media and incubated over 24 hours at 37 °C, 5% CO2, and 100% RH. The cells were then washed once with sterile phosphate buffered saline (PBS, pH = 7.4) and 100 µL of SCCs or the Ag-PPE-SCKs at various concentrations in OPTI-MEM® (Invitrogen) with 3.3% (v/v) DMSO, or without for the Ag-PPE-SCKs, was added to the cells. Next, 10 µL of alamarBlue® (Invitrogen) was added to each well and the plates were re-incubated for 24 h. Finally, the plates were measured for optical density at 570 and 600 nm with a spectrophotometer (POLARstar Omega, BMG Labtech or Cytation 5, BioTek). Untreated cells and media only (with alamarBlue®) were used as controls. […] The relative viabilities of the cells were determined as per the manufacturer’s instructions and using GraphPad Prism® software to generate a non-linear curve fit and interpolate the in vitro LD50 for each SCC. This assay was performed with three technical replicates for each SCC and Ag-PPE-SCK dose and biological replicates were performed in quadruplicate on separate days (3 technical replicates × 4 biological replicates = 12 total replicates). The DEM for each SCC was determined as the ratio of the molar LD50 and MBC concentrations (LD50/MBC).

[3] = test system: primary human dermal fibroblasts (HDFs); experiment: alamarBlue cytotoxicity assay against HDFs (in vitro LD50); format: cell-based; conditions: 24 h
Experimental: as §1, §2

[4] = test system: Pseudomonas aeruginosa (PA M57-15); experiment: Murine P. aeruginosa acute lung infection model, nebulized treatment; format: in vivo, mouse; conditions: for clinical illness score (signs of illness): 25 µmol per dose nebulized with DMSO, SCC1 and SCC22: at 24 hours following infection, scorers not blinded; for survival compared with sham treatment: 25 µmol per dose nebulized; for survival compared with sham treatment / survival: 90:10 DH2O:DMSO, head-to-head of four SCCs; for survival: 25 µmol Ag+ per dose nebulized, 5 doses, sham 9.1%
Experimental: Weight-matched male C57BL/6 J mice aged 6–8 weeks were used for all acute lung infection studies, which were approved by the University of Texas Southwestern Medical Center Institutional Animal Care and Use Committee (IACUC). All experiments were performed in accordance with relevant guidelines and regulations. Animals were housed in a barrier facility under pathogen-free conditions until they were inoculated with bacteria. The previously described clinical mucoid strain of Pseudomonas aeruginosa (PA M57-15) grown to mid-log phase (OD650 = 0.4) in Luria broth (LB) was used for all pulmonary infection experiments. The density of the bacterial culture (CFU/mL) was determined using serial dilution and plating for each experiment.
Mice were anesthetized by intraperitoneal administration of a ketamine (60 mg/kg) and xylazine (8 mg/kg) cocktail, intranasally inoculated using 75 µL of the bacterial inoculum (~1 × 10^6 CFU per mouse), and assigned randomly into treatment groups. Treatment was administered at 1-hour post-inoculation and again every 12 hours thereafter up to a 5th dose at 49 hours via nebulization of 5 mL of SCC solutions (containing 25 µmol total Ag^+ cation per dose for each SCC) or sham treatment. For the head-to-head comparison of unencapsulated SCC1, SCC22, SCC23, and SCC28, all SCCs were dissolved in a 90:10 (v/v) mixture of DH2O and DMSO; whereas, the sham treatment consisted of 90:10 DH2O: DMSO, but with dilute phosphate buffer (1 mM Na2HPO4, 0.2 mM KH2PO4) incorporated to provide tonicity for nebulization. For the dose-response studies with unencapsulated SCC1 and SCC22, 5 mL of SCCs dissolved in DH2O alone or 90:10 (v/v) mixture of DH2O and DMSO was nebulized to provide a total dose of 25, 50, or 100 µmol Ag^+ cation per dose for each SCC. Nebulization of the SCCs was achieved using a previously described experimental setup comprising of an Aeroneb Lab apparatus connected to a multi-dosing chamber. Throughout each study, the mice were monitored constantly and times of death were recorded. Every 24 hours, the mice were weighed and assigned cumulative clinical illness scores (0–6) based on their resting posture (0–2), condition of their fur (0–1), and overall activity level (0–3), with higher scores indicating more severe illness. The investigators assigning the scores were not blinded to the treatment group, which is a limitation of this study. The survival studies were all performed in duplicate with results pooled.
In vivo efficacy testing of the silver loaded, polyphosphoester, shell-crosslinked, knedel-like nanoparticles (Ag-PPE-SCKs) was carried out in a similar manner as with the SCCs. Ag-PPE-SCKs were suspended in 5 mL DH2O to a concentration of ~5 mM silver, as previously determined by mass spectrometry, and empty PPE-SCKs were suspended corresponding to the same mass of polymer. SCC1, a comparator treatment, was similarly dissolved to 5 mM in 5 mL DH2O, and sham consisted of the DH2O:phosphate buffer solution used in the other studies. The infection model was carried out as before; however, the Ag-PPE-SCKs and PPE-SCKs were dosed at 1 and 25 hours post-infection with the nanoparticles and given sham treatment at 13, 37, and 49 hours. SCC1 and sham treatment groups were dosed at all five time points. Survival studies were performed twice and pooled, though SCC1 was only used in one of the survival studies.

[5] = test system: Pseudomonas aeruginosa (PA M57-15); experiment: Histology of lungs of infected, treated mice; format: in vivo, mouse; conditions: lungs at 25 hours after three treatments; for aggregate histological score: inflammation, consolidation, congestion/haemorrhage each 0 to +3, sham +6
Experimental: Male C57BL/6 J mice were infected with PA M57-15 and treated with the four SCCs or vehicle as described above. At 25 hours, following three treatments, the mice were humanely euthanized by cervical dislocation following anesthetization by a ketamine/xylazine cocktail. Lungs of the mice were harvested aseptically, the lung sections fixed in 10% formalin for a minimum of 12 hours, and embedded in paraffin using an automated rapid tissue processor (Peloris-Leica Microsystems Inc., Buffalo Grove, IL). Two 5-micron thick sections were obtained from each paraffin block and stained with Haematoxylin/Eosin on an automated stainer (Symphony, Ventana-Roche, Tucson, AZ). Sections were evaluated by light microscopy (Nikon Eclipse-Ni, Nikon Instruments, Inc., Americas), scored using a semi-quantitative scale from 0 (negative), +1 (mild), +2 (moderate), and +3 (severe) for the following parameters: inflammation, consolidation, congestion/haemorrhage, and an aggregate score was calculated for each group. The presence of bacterial colonies if any was also noted. A pathologist, who was blinded to the treatment received by the mice, performed the examination and analysis of tissues. A total of two mice were used in each treatment group.

[6] = test system: 16HBE cells vs. PA M57-15; experiment: Drug efficacy metric (DEM = LD50/MBC) using 16HBEs; parameters: species or system human; conditions: 16HBE-based DEM; one-way ANOVA with Tukey's test or unpaired t-test
Experimental: as §2, with “This assay was performed with three technical replicates for each SCC and Ag-PPE-SCK dose and biological replicates were performed in quadruplicate on separate days (3 technical replicates × 4 biological replicates = 12 total replicates).” left out

[7] = parameters: method as in PMID 20449175; conditions: cited from earlier work
[8] = test system: primary tracheal epithelial cells grown at air-liquid interface; parameters: method as in PMID 20005242; conditions: higher than 16HBE; cited from earlier work
[9] = parameters: method as in PMID 23930200; conditions: radiolabelled Ag+; cited from earlier work
[10] = 100 µmol, DMSO-free formulation

Structure (SMILES)	MBC ([1]; PA M57-15) [µg/mL]	MIC ([1]; PA M57-15) [µg/mL]	MBC ([1]; PA M57-15, molar basis)	MIC ([1]; PA M57-15, molar basis)	LD50 [2] [µM]	LD50 [3] [µM]	clinical illness score (signs of illness) [4]	survival compared with sham treatment [4]	bacterial colonies in lung tissue [5]	aggregate histological score [5]	DEM compared between formulations [6]	survival [4] [%]	survival advantage compared with sham treatment ([4]; 25 µmol, DMSO-free formulation) [%]	survival advantage compared with sham treatment ([4]; 25 µmol, with DMSO) [%]	survival advantage compared with sham treatment ([4]; 50 µmol, DMSO-free formulation) [%]	survival advantage compared with sham treatment [4, 10] [%]	survival advantage compared with sham treatment ([4]; 100 µmol, with DMSO)	also measured
CC(=O)[O][Ag][c]1n(Cc2ccc3ccccc3c2)c(Cl)c(Cl)[n+]1Cc1ccc2ccccc2c1 [SCC23]	1.0	0.50	1.7 µM	0.86 µM	14.7	14.2	appeared the most infirm at each time-point	significantly lower survival	bacterial colonies were not identified	+4								
CC(=O)[O][Ag][c]1n(CCCO)c(Cl)c(Cl)[n+]1C [SCC22]	1.0	0.75	2.7 µM	2.0 µM and 2 µM	224	22.7	significantly lower signs of illness		No bacterial colonies were identified	+3	significantly higher DEMs than SCC23 and SCC28	42	25	58	67	67	did not yield any survival advantage	survival advantage compared with sham treatment ([4]; 50 µmol, with DMSO): 50%; water solubility [7]: up to 110 g/L
CC(=O)[O][Ag][c]1n(C)c2c(c(=O)n(C)c(=O)n2C)[n+]1C [SCC1]	1.5	0.75	4.0 µM and 4 µM	2.0 µM and 2 µM	297	25.8	significantly lower signs of illness		complete absence of bacterial colonies	+4	significantly higher DEMs than SCC23 and SCC28	25	58	42	64	73	17%	survival advantage compared with sham treatment ([4]; ~5 mM silver in 5 mL DH2O nebulized, Ag-PPE-SCKs dosed at 1 and 25 h, SCC1 at all five time points): 50%; LD50 of primary cells relative to that of 16HBE [8]: about 2 log10; accumulation in the liver [9]: minimal accumulation
CCCCCCn1c(Cl)c(Cl)[n+](Cc2ccc3ccccc3c2)[c]1[Ag][O]C(C)=O [SCC28]	1.0	0.50	1.9 µM	0.95 µM	58.1	9.8		significantly lower survival	bacterial colonies were not identified	4								
